This passage reports Activity results from ChEMBL document CHEMBL2074285, “Characterization of the drug resistance and transport properties of multidrug resistance protein 6 (MRP6, ABCC6)” (Cancer Res, 2002).

Numbered stars: 1 amine (or outer) side, 2 acyl side, 3 side chain; on linkers, the order of the positions; unused ones are H or OH. Bridge positions count the residues as written; N and C are the ends. Square brackets hold non-standard residues; d marks the D form. Peptide text beside a SMILES is read from it. I, II: the chains in the order shown. Actinocin(9to1) = Cc1c2oc3c(C)ccc(C(=O)[*:1])c3nc-2c(C(=O)[*:2])c(N)c1=O; NMeV = CN[C@H](C(=O)O)C(C)C; Sar = CNCC(=O)O

For the first data set, the target named is T1, ATP-binding cassette sub-family C member 6 (Homo sapiens, UniProt O95255). Put plainly: TP_TRANSPORTER: drug resistance in MRP6-expressing CHO cells. The format is functional, cell-based. To be noted: hamster.
T1 sequence (O95255 whole entry): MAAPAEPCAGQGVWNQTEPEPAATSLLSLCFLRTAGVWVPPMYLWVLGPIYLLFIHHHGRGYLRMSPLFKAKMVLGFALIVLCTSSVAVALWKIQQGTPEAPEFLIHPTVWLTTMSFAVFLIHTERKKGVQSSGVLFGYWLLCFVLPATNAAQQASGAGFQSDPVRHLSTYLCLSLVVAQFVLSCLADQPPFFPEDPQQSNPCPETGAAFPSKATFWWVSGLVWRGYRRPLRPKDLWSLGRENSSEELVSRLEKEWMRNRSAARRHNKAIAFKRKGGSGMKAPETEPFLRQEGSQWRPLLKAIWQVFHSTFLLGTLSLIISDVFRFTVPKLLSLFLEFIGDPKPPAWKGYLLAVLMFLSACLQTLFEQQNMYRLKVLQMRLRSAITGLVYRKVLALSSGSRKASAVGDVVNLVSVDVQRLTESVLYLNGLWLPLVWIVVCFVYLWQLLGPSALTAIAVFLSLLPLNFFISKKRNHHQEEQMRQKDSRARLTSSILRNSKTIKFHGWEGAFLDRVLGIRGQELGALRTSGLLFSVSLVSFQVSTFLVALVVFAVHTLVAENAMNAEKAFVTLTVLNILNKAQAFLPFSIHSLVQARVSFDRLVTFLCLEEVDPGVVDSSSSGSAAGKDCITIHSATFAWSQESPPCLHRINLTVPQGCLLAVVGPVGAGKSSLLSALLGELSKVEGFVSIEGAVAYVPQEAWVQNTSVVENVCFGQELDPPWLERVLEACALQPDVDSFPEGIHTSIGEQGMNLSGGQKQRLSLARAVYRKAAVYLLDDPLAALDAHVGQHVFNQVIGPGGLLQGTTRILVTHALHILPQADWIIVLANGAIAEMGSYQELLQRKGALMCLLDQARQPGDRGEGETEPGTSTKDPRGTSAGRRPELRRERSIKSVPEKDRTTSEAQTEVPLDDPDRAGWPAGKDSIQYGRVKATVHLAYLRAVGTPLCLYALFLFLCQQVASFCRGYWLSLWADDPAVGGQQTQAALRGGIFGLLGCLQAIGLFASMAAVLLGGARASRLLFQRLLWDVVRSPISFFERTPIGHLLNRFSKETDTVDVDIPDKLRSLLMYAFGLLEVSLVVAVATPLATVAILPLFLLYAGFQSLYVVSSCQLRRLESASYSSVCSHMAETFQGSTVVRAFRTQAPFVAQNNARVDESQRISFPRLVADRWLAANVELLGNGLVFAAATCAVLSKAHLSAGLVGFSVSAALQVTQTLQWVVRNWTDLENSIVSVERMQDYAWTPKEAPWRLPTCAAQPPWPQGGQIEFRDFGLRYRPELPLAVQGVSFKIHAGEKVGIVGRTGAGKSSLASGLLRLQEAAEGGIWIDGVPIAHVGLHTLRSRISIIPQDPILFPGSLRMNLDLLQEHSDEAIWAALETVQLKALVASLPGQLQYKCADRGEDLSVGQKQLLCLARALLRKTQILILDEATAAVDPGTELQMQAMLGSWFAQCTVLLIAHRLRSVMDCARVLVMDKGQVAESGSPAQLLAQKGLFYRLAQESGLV
On to `COc1cc([C@@H]2c3cc4c(cc3[C@@H](O[C@@H]3O[C@@H]5CO[C@@H](c6cccs6)O[C@H]5[C@H](O)[C@H]3O)[C@H]3COC(=O)[C@H]23)OCO4)cc(OC)c1O` [TENIPOSIDE], for which the Activity entry was “substrate []”.
The same measure, in the same setting: then `Cc1c2oc3c(C)ccc(C(=O)N[C@@H]4C(=O)N[C@H](C(C)C)C(=O)N5CCC[C@H]5C(=O)N(C)CC(=O)N(C)[C@@H](C(C)C)C(=O)O[C@@H]4C)c3nc-2c(C(=O)N[C@@H]2C(=O)N[C@H](C(C)C)C(=O)N3CCC[C@H]3C(=O)N(C)CC(=O)N(C)[C@@H](C(C)C)C(=O)O[C@@H]2C)c(N)c1=O` [DACTINOMYCIN] (I: T[dV]P[Sar][NMeV] / II: T[dV]P[Sar][NMeV]; ester I:1-I:C, II:1-II:C; linker I:N-II:N via Actinocin(9to1)), with “substrate []”.
On the same count and under the same terms, then CISPLATIN, with “substrate []”.
On the same count and under the same terms, then `COc1cccc2c1C(=O)c1c(O)c3c(c(O)c1C2=O)C[C@@](O)(C(C)=O)C[C@@H]3O[C@H]1C[C@H](N)[C@H](O)[C@H](C)O1` [DAUNORUBICIN], with “substrate []”.
As to `COc1cc([C@@H]2c3cc4c(cc3[C@@H](O[C@@H]3O[C@@H]5CO[C@@H](C)O[C@H]5[C@H](O)[C@H]3O)[C@H]3COC(=O)[C@H]23)OCO4)cc(OC)c1O` [ETOPOSIDE], the Activity result was “substrate []”.
On the same count and under the same terms, the result for `COc1cccc2c1C(=O)c1c(O)c3c(c(O)c1C2=O)C[C@@](O)(C(=O)CO)C[C@@H]3O[C@H]1C[C@H](N)[C@H](O)[C@H](C)O1` [DOXORUBICIN] reads “substrate []”.

A further data set concerns the target T1, ATP-binding cassette sub-family C member 6. Put plainly: TP_TRANSPORTER: uptake in membrane vesicle from MRP6-expressing CHO cells. The format is functional, cell membranes. Particulars: hamster.
As to `CC(C)C[C@@H]1NC(=O)[C@@H](C(C)C)NC(=O)[C@@H]2CCCN2C(=O)[C@@H](CC(=O)O)NC(=O)[C@@H](Cc2c[nH]c3ccccc23)NC1=O` [BQ-123] (HELM PEPTIDE1{L.[dW].[dD].P.[dV]}$PEPTIDE1,PEPTIDE1,1:R1-5:R2$$$V2.0), the Activity result is “substrate [+]”.
On the same count and under the same terms, the result for `CCCCC/C=C\C\C=C/C=C/C=C/[C@@H](SC[C@@H](NC(=O)CC[C@H](N)C(=O)O)C(=O)NCC(=O)O)[C@@H](O)CCCC(=O)O` [LEUKOTRIEN C4] reads “substrate [+]”; that for `N[C@@H](CCC(=O)N[C@H](CSc1ccc([N+](=O)[O-])cc1[N+](=O)[O-])C(=O)NCC(=O)O)C(=O)O`, “substrate [+]”.
